Test results: US7078499B2, “Nucleotide analogues comprising a reporter moiety and a polymerase enzyme blocking moiety” (GE Healthcare UK Limited, priority 2000, dated 2006)

Legend:
Format in all cases: biochemical
AMV RT = assay: Mesophilic reverse transcriptase reaction, AMV RT; design: key: −: No extension within assay time; +/−: up to 25% of primer extended by at least one base within assay time; +: up to 50% of primer extended by at least one base within assay time; ++: up to 75% of primer extended by at least one base within assay time; +++: essentially all primer extended by at least one base within assay time; details: RNA template, final enzyme concentration of 4 units/μl
Protocol: (§1) DNA polymerase assays were performed using Sequence 1 as primer and Sequence 2 as template. • Sequence 1 5′[Cy3]TAACTCATTAACAGGATC 3′ • Sequence 2 5′AT TCGCGGTATTCTGGTATGAAGCTTTTAGATCCTGTTAATGAGTTA GTA3′
(§2) The template (Sequence 2) was designed such that the base (underlined) immediately adjacent to the 3′ end of the hybridised primer is complementary to the nucleotide test compound. Nucleotide test compounds were compounds (6) (4′-C-(glycylaminomethyl)thymidine triphosphate), (8) (4′-C-(N-trifluoroacetyaminomethyl)thymidine triphosphate) and (9) (4′-C-(aminomethyl)thymidine triphosphate) as described above.
(§3) Primer extension reactions were performed using the above primers in the presence of 40 to 80 μM of nucleotide triphosphates. Positive control reactions contained all four native nucleotide triphosphates. For the other reactions the TTP was replaced with either a 2:1 ratio of […] for the terminator control, or entirely by the test compound The enzymes were used at a final concentration of 0.175 units/μl and a magnesium ion concentration of 2.5 mM in buffers supplied by the manufacturer. The primer and template concentrations were 0.5 pmol/μl and 2 pmol/μl respectively.
(§4) Extension reactions preformed with mesophilic polymerases were carried out by mixing all the components of the reaction except the enzyme and heating to 70° C. for 5 min. After the reactions had cooled to room temperature 0.175 units of the enzyme were added and the reactions heated to 37° C. for 20–40 minutes. The following enzymes were used: T7 DNA polymerase (T7); Sequenase 2™ (Seq); Klenow fragment of DNA polymerase 1 (Klen); phi-29 DNA polymerase (Phi-29); T4 DNA polymerase (T4) (all from AP Biotech) and Bst DNA polymerase (Bst) (Cambio Ltd).
Reverse transcriptase reactions were performed essentially as described above for thermophilic and mesophilic enzymes. The template for these reactions was the RNA equivalent of sequence 2. […]
(§5) Gels were scanned for Cy3 fluorescence on a Molecular Dynamics Fluorimager and the data analysed using Molecular Dynamics ImageQuant 5 software. […]

Thermosequenase II = assay: Thermostable DNA polymerase primer extension, TSII; design: key to result of incorporation (termination / further chain extension): T: Incorporation results in termination; E: Incorporation permits further chain extension; T/E: Predominant product is primer extended by one base, but evidence of some further extension also observed; details: DNA template, 45° C. for 20–40 minutes; for primer extended by at least one base within assay time (grade): TTP replaced entirely by test compound
Protocol: as §1, §2, §3
(§6) Extension reactions with thermophilic enzymes were performed by initially denaturing the fully assembled reactions at 70° C. for 5 min. followed by 45° C. for 20–40 minutes. The following enzymes were used: Taq DNA polymerase (Taq); Thermosequenase (TS); Thermosequenase II (TSII); Thermosequenase E (TSE), Tfl DNA polymerase (Tfl); Tth DNA polymerase (Tth), deltaTts DNA polymerase (deltaTts), deltaTts D DNA polymerase (dettaTTSD) (all from APBiotech); Pfu DNA polymerase (Pfu) (Stratagene Ltd); Vent™ DNA polymerase (Vent) (New England Biolabs).
(§7) The reactions were stopped by adding a 0.5 volume aliquot of 80% formamide containing 0.1% (w/v) bromophenol blue and 0.1% (w/v) cresol blue. The reaction products were separated by denaturing gel electrophoresis at a constant power of 45 W on 16% polyacrylamide gels containing 50% urea.
(§8) Gels were scanned for Cy3 fluorescence on a Molecular Dynamics Fluorimager and the data analysed using Molecular Dynamics ImageQuant 5 software.
(§9) The incorporation of a test nucleotide triphosphate results in the appearance on a polyacrylamide gel of a single band corresponding to a single base extension product. If, however, the enzyme adds additional bases then further bands would be observed that corresponded to either the full-length product or positions of other complementary bases in the template.

[1] = system: deltaTts D DNA polymerase; assay: Thermostable DNA polymerase primer extension, delta TTSD; design: key to result of incorporation (termination / further chain extension): T: Incorporation results in termination; E: Incorporation permits further chain extension; T/E: Predominant product is primer extended by one base, but evidence of some further extension also observed; details: DNA template, 45° C. for 20–40 minutes; for primer extended by at least one base within assay time (grade): TTP replaced entirely by test compound
Protocol: as §1, §2, §3, §6, §7, §8, §9

[2] = target: T1, Klenow fragment of DNA polymerase 1 (Escherichia coli, UniProt P00582); assay: Mesophilic DNA polymerase primer extension, Klen; design: key: −: No extension within assay time; +/−: up to 25% of primer extended by at least one base within assay time; +: up to 50% of primer extended by at least one base within assay time; ++: up to 75% of primer extended by at least one base within assay time; +++: essentially all primer extended by at least one base within assay time; details: DNA template, TTP replaced entirely by test compound, 37° C. for 20–40 minutes
T1 construct: Klenow fragment of DNA polymerase 1 (Klen); purchased AP Biotech
Protocol: as §1, §2, §3, §4
The reactions were stopped by adding a 0.5 volume aliquot of 80% formamide containing 0.1% (w/v) bromophenol blue and 0.1% (w/v) cresol blue. […]
as §5

Thermosequenase = assay: Thermostable polymerase under reverse transcription conditions, TS I; design: key to result of incorporation (termination / further chain extension): T: Incorporation results in termination; E: Incorporation permits further chain extension; T/E: Predominant product is primer extended by one base, but evidence of some further extension also observed; details: RNA template, 2.5 mM Manganese ions; for primer extended by at least one base within assay time (grade): Tth reaction buffer
Protocol: as §1, §2, §3, §6
(§10) Reverse transcriptase reactions were performed essentially as described above for thermophilic and mesophilic enzymes. The template for these reactions was the RNA equivalent of sequence 2. All the thermophilic enzymes were assayed in Tth reaction buffer (Cambio Ltd, Cambridge UK) containing 2.5 mM Manganese ions. The following enzymes were used: Thermosequenase (TS1); Thermosequenase II (TSII); delta Tts DNA polymerase (deltaTts); delta Tts D DNA polymerase (deltaTtsD) (all from APBiotech); Retrotherm reverse transcriptase (Retroth) (Cambio Ltd); Tth DNA polymerase (Tth) (Cambio Ltd.).
as §7, §8, §9

SAV RT = assay: Mesophilic reverse transcriptase reaction, SAV RT; design: key to result of incorporation (termination / further chain extension): T: Incorporation results in termination; E: Incorporation permits further chain extension; T/E: Predominant product is primer extended by one base, but evidence of some further extension also observed; details: RNA template, final enzyme concentration of 4 units/μl
Protocol: as §1, §2, §3, §4, §10
(§11) Mesophilic reverse transcriptases (AMV RT; MuLV RT; SAV RT and HIV RT all from APBiotech) were assayed in their respective buffers with a final enzyme concentration of 4 units/μl.
as §7, §8, §9

Taq DNA polymerase = target: T2, Taq DNA polymerase (Thermus aquaticus, UniProt P19821); assay: Thermostable DNA polymerase primer extension, Taq; design: key to result of incorporation (termination / further chain extension): T: Incorporation results in termination; E: Incorporation permits further chain extension; T/E: Predominant product is primer extended by one base, but evidence of some further extension also observed; details: DNA template, 45° C. for 20–40 minutes; for primer extended by at least one base within assay time (grade): TTP replaced entirely by test compound
T2 construct: purchased APBiotech
Protocol: as §1, §2, §3, §6, §7, §8, §9

a range of polymerases = assay: DNA polymerase assays (summary); details: for further extension after incorporation: reverse transcriptase conditions; for result of incorporation / substrate for polymerases: summary of polymerase assays
Protocol: as §1, §2, §3, §6, §4, §10, §11, §7, §8, §9

T1 sequence (P00582 324-928): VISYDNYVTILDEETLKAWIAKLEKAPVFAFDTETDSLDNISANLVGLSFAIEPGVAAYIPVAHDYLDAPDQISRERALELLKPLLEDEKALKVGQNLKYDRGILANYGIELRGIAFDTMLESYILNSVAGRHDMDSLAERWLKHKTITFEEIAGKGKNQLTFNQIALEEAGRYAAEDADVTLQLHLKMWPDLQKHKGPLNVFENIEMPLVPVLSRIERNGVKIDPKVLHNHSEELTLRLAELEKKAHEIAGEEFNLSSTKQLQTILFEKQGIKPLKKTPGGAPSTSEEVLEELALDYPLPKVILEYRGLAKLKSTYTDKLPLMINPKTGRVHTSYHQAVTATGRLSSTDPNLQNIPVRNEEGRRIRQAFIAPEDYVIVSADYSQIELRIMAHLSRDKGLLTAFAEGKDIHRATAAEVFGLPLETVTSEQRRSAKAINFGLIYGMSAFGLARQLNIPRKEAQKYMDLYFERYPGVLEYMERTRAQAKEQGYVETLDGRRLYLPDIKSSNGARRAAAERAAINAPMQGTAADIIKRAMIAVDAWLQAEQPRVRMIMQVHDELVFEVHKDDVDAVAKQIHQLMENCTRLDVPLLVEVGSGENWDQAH
T2 sequence (P19821 whole entry): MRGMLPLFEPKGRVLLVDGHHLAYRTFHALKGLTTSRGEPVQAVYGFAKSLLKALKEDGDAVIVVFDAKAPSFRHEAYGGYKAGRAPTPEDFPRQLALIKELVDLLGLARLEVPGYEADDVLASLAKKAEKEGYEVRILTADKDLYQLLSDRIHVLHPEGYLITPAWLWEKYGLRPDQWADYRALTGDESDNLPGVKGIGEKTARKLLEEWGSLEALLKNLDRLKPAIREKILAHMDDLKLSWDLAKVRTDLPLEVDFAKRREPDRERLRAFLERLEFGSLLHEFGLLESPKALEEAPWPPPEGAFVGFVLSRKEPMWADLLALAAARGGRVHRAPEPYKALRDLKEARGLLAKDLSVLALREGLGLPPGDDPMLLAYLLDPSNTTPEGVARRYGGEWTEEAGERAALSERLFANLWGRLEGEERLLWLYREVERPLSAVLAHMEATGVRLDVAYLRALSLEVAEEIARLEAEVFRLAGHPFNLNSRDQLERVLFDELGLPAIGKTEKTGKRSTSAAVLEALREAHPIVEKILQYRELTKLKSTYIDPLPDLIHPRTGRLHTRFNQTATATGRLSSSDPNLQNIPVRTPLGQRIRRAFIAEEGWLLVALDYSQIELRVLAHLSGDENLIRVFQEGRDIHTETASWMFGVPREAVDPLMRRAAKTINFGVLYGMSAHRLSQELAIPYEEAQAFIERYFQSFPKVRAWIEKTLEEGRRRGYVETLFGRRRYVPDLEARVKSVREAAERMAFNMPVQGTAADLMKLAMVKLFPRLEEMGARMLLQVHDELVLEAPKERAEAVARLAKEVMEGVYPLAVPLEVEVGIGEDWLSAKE

Molecule	primer extended by at least one base within assay time (grade) (AMV RT)	result of incorporation (termination / further chain extension) (Thermosequenase II)	primer extended by at least one base within assay time (grade) (Thermosequenase II)	result of incorporation (termination / further chain extension) [1]	primer extended by at least one base within assay time (grade) [1]	primer extended by at least one base within assay time (grade) [2]	result of incorporation (termination / further chain extension) (Thermosequenase)	primer extended by at least one base within assay time (grade) (Thermosequenase)	primer extended by at least one base within assay time (grade) (SAV RT)	result of incorporation (termination / further chain extension) (SAV RT)	result of incorporation (termination / further chain extension) (Taq DNA polymerase)	primer extended by at least one base within assay time (grade) (Taq DNA polymerase)	further extension after incorporation (a range of polymerases)	result of incorporation (a range of polymerases)	substrate for polymerases (a range of polymerases)
4′-C-(Aminomethyl)thymidine triphosphate [compound (9)]	−	T	+ (up to 50% of primer extended by at least one base within assay time)	T/E	++ (up to 75% of primer extended by at least one base within assay time)	−	T/E	+ (up to 50% of primer extended by at least one base within assay time)	++ (up to 75% of primer extended by at least one base within assay time)	E	T	+/− (up to 25% of primer extended by at least one base within assay time)	some extension was observed	termination	effective substrates
Cc1cn([C@H]2C[C@H](O)[C@@](CNC(=O)C(F)(F)F)(COP(=O)(O)OP(=O)(O)OP(=O)(O)O)O2)c(=O)[nH]c1=O [compound (8), 4′-C-(N-trifluoroacetylaminomethyl)thymidine triphosphate]	−	T	+ (up to 50% of primer extended by at least one base within assay time)	T/E	++ (up to 75% of primer extended by at least one base within assay time)	−	T/E	+ (up to 50% of primer extended by at least one base within assay time)	++ (up to 75% of primer extended by at least one base within assay time)	E	T	+/− (up to 25% of primer extended by at least one base within assay time)	some extension was observed	termination	effective substrates
4′-C-(Glycylaminomethyl)thymidine triphosphate [compound (6)]	−	T	+ (up to 50% of primer extended by at least one base within assay time)	T	++ (up to 75% of primer extended by at least one base within assay time)	−	T/E	+ (up to 50% of primer extended by at least one base within assay time)	+ (up to 50% of primer extended by at least one base within assay time)	E?	T	+/− (up to 25% of primer extended by at least one base within assay time)	some extension was observed	termination	effective substrates
